Source: ChEMBL document CHEMBL1201862, “PubChem BioAssay data set” (2004)
Values belong to the molecule of their own block, whether it stands above or below them. Active and inactive are the calls of the source.

Experiments:
Cytochrome P450 3A4 = Cytochrome P450 3A4 (Homo sapiens, UniProt P08684);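 further: CYP3A4 tested as one member of a cytochrome P450 panel screen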
[1] = target: Neurotensin receptor type 1 (Homo sapiens, UniProt P30989); type: functional;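 further: Image-based confirmatory dose-response assay measuring agonist activity at NTR1; NTR1-expressing U2OS osteosarcoma cells imaged for beta-arrestin GFP spot formation; agonist potency where compounds increase beta-arrestin recruitment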
[2] = target: T1, Heat shock factor protein 1 (Mus musculus, UniProt P38532); test: HSF1 potentiators in luciferase reporter cells, confirmation, cell-based, NIH3T3, luminescence, dose retest (AID 435004); type: functional;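 further: stress induced by proteasome inhibitor MG132 added 30 min after compound; luciferase reporter driven by HSF1 response element in NIH3T3 cells; actives raise luminescence as potentiators of the MG132 stress response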
T1 sequence (P38532 whole entry): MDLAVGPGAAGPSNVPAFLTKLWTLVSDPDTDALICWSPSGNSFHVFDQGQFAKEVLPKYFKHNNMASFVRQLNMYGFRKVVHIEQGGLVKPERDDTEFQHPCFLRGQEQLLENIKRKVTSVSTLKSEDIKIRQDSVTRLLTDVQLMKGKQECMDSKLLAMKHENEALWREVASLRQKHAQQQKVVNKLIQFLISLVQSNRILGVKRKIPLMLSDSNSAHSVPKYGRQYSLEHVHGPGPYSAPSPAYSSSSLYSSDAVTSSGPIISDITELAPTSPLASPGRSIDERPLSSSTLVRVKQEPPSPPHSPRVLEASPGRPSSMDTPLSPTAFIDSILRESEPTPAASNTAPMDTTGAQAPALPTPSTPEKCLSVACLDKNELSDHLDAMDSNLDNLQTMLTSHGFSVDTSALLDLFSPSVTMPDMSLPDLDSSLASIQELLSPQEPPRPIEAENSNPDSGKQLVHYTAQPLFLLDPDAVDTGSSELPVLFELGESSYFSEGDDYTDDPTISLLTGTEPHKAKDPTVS

[3] = target: NACHT, LRR and PYD domains-containing protein 1 (Homo sapiens, UniProt Q9C000); test: NALP1 inhibitors in yeast, dose response, luminescent (AID 488860); type: functional
Saccharomyces cerevisiae = test: NALP1 inhibitor project selectivity study, Caspase-1/ASC signal blockade IC50 in S. cerevisiae (AID 488863); type: functional, organism-based
Ephrin type-A receptor 4 = Ephrin type-A receptor 4 (Mus musculus, UniProt Q03137); test: inhibitors of EphA4 binding to KYL peptide, primary screen, biochemical, colorimetric, mouse EphA4 (AID 689); type: functional
Estrogen receptor beta = Estrogen receptor beta (Homo sapiens, UniProt Q92731); test: ERβ–SRC-3 coactivator interaction inhibitors, confirmation, orthogonal assay, biochemical, ELISA, streptavidin-HRP readout (AID 1060)
Genome polyprotein = Genome polyprotein (dengue virus type 2, UniProt P29990); test: Dengue-2 NS5 methyltransferase inhibitors, primary screen, biochemical, confirmation dose response (AID 588689); type: functional
[4] = target: T2, Tyrosine-protein phosphatase non-receptor type 7 (Homo sapiens, UniProt P35236); test: redox-dependent HePTP inhibition, mechanism study, biochemical, fluorescence (AID 2068); type: functional
T2 sequence (P35236 whole entry): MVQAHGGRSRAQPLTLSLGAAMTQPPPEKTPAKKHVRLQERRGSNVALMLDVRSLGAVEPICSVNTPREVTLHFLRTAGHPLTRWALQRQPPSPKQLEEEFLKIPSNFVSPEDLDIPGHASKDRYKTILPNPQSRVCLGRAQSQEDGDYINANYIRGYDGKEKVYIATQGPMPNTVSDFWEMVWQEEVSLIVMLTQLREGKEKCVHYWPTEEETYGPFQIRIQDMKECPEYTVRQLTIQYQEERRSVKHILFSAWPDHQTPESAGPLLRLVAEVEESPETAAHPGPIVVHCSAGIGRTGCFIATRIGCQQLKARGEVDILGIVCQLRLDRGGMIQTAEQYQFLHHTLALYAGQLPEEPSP

[5] = target: Induced myeloid leukemia cell differentiation protein Mcl-1 (Homo sapiens, UniProt Q07820); type: functional
[6] = target: T3, Dual specificity protein phosphatase 6 (Rattus norvegicus, UniProt Q64346)
T3 sequence (Q64346 whole entry): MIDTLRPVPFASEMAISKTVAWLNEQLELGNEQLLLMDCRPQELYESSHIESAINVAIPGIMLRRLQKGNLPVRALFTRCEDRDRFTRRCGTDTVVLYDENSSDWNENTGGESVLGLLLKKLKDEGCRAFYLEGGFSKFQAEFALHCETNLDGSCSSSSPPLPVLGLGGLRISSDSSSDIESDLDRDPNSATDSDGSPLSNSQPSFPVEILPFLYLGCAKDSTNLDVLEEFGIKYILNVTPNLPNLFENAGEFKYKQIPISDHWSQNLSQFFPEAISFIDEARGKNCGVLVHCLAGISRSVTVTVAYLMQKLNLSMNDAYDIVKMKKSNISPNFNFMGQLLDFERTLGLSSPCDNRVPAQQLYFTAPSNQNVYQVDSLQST

[7] = target: T3, Dual specificity protein phosphatase 6; type: functional
[8] = target: T2, Tyrosine-protein phosphatase non-receptor type 7; type: functional
[9] = target: Glyceraldehyde-3-phosphate dehydrogenase (Homo sapiens, UniProt P04406)
[10] = target: T4, Alkaline phosphatase, tissue-nonspecific isozyme (Homo sapiens, UniProt P05186); test: human TNAP enzyme inhibitors, SAR follow-up, biochemical, luminescent, dose response (AID 1056)
T4 sequence (P05186 whole entry): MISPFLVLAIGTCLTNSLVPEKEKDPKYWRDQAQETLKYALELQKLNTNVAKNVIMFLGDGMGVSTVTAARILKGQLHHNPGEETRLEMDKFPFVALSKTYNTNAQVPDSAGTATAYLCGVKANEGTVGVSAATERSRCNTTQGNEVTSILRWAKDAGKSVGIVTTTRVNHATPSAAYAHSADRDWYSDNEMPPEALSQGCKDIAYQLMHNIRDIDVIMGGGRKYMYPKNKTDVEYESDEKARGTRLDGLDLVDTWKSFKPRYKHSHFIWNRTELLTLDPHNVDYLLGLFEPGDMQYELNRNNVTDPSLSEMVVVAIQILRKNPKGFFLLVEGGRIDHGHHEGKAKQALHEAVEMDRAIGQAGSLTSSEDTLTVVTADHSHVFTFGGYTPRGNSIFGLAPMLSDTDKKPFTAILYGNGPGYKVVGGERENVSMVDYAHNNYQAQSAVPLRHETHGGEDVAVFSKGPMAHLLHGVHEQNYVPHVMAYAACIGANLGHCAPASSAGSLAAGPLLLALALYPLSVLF

[11] = target: Alkaline phosphatase, placental type (Homo sapiens, UniProt P05187); test: PLAP enzyme inhibitors, confirmation, biochemical, luminescence (AID 1512); type: functional
HEK293 [12] = test: cells; type: functional, cell-based; settings: Homo sapiens
[13] = target: Nucleotide-binding oligomerization domain-containing protein 2 (Homo sapiens, UniProt Q9HC29); test: NOD2 signaling inhibitors, cell-based, luminescence, uHTS, HEK293 (AID 1566); type: functional
HEK293 [14] = test: cells; type: functional, cell-based; settings: Homo sapiens; remark: listed apart in the source
HEK293 [15] = test: NOD2 signaling inhibitors in MDP-stimulated cells, cell-based, uHTS, luminescence (AID 2001); type: functional; settings: Homo sapiens
HEK293 [16] = test: NOD1 signaling inhibitors, primary screen, cell-based, luminescence, uHTS (AID 1578); type: functional; settings: Homo sapiens
HEK293 [17] = test: cells; type: functional, cell-based; settings: Homo sapiens; remark: listed apart in the source
[18] = test system: Streptococcus sp. 'group A'; test: growth inhibition of control SK(-) GAS strain, dose response, counter-screen for streptokinase expression inhibitor project, luminescence, kanamycin, BacTiterGlo, confirmation (AID 1900); type: functional, organism-based; settings: Streptococcus sp. 'group A'
INS1 = test: beta cell apoptosis inhibitors, cytokine rescue, dose response, luminescence, retest (AID 449756); type: functional, cell-based; settings: Rattus norvegicus;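 further: cell death triggered by IL-1 beta plus TNF-alpha plus IFN-gamma mixture; protective hits raise ATP signal compared with cytokine alone wells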
Streptococcus = test: Group A Streptococcus viability loss, dose response, counter-screen for streptokinase expression inhibitor project, luminescence, BacTiterGlo (AID 1915); type: functional, organism-based; settings: Streptococcus;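 further: potency for reduction of bacterial viability or growth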
[19] = target: T5, Apoptotic protease-activating factor 1 (Homo sapiens, UniProt O14727); type: functional
T5 sequence (O14727 whole entry): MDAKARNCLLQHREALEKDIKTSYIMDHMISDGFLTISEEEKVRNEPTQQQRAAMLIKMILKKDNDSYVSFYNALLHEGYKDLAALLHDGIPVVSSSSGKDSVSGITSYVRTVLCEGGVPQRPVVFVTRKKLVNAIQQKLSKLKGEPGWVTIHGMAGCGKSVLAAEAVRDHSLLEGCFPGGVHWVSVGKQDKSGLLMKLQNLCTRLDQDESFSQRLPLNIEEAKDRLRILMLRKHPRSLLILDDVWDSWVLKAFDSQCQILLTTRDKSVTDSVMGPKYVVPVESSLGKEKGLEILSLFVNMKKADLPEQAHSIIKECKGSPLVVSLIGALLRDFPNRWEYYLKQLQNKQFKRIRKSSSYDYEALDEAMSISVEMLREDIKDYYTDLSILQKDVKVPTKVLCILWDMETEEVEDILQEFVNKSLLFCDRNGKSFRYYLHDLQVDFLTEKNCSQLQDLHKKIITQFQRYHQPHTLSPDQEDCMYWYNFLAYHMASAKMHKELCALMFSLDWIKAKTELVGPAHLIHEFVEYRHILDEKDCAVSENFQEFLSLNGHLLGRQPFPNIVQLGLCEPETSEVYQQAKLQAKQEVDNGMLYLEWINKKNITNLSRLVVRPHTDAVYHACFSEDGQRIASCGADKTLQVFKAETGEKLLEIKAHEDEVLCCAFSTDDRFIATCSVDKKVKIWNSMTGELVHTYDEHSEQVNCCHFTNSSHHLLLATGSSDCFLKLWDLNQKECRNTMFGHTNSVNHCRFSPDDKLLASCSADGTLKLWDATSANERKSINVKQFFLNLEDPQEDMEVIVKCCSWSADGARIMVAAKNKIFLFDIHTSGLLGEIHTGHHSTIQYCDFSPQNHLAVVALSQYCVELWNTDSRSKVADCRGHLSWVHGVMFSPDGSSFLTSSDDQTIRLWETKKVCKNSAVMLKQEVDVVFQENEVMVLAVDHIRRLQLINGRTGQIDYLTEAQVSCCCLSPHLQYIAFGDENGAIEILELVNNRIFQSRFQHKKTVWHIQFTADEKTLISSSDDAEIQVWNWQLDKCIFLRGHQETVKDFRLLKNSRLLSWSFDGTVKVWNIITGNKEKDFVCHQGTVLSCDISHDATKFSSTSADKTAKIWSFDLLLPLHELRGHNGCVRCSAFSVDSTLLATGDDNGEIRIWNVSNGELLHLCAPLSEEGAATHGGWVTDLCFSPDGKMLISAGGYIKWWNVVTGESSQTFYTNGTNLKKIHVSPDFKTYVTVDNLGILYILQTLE

[20] = HEp-2 cell cytotoxicity, dose response, cytotoxicity control for RSV inhibitor project, HTS (AID 2410); type: functional; settings: human respiratory syncytial virus
[21] = target: Dual specificity protein phosphatase 3 (Homo sapiens, UniProt P51452); test: VHR1 inhibitor Ki determination, SAR follow-up, biochemical, colorimetric (AID 2004)
Chain of Dual specificity protein phosphatase 3 (P51452 whole entry): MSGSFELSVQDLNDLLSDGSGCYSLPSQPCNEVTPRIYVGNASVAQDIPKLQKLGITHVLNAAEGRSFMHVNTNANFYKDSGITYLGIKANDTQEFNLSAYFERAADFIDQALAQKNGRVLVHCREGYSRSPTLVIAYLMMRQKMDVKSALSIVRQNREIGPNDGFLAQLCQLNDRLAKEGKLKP

Chain of Glyceraldehyde-3-phosphate dehydrogenase (P04406 whole entry): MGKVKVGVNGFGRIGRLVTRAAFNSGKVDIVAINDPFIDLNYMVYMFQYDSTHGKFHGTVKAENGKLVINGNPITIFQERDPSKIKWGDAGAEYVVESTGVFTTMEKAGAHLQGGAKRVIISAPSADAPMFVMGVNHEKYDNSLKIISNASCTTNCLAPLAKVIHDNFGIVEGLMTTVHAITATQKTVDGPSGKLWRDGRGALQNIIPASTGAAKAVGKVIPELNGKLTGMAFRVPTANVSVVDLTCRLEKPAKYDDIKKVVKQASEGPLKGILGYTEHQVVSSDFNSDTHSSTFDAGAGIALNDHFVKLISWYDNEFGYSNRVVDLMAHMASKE
Chain of Alkaline phosphatase, placental type (P05187 whole entry): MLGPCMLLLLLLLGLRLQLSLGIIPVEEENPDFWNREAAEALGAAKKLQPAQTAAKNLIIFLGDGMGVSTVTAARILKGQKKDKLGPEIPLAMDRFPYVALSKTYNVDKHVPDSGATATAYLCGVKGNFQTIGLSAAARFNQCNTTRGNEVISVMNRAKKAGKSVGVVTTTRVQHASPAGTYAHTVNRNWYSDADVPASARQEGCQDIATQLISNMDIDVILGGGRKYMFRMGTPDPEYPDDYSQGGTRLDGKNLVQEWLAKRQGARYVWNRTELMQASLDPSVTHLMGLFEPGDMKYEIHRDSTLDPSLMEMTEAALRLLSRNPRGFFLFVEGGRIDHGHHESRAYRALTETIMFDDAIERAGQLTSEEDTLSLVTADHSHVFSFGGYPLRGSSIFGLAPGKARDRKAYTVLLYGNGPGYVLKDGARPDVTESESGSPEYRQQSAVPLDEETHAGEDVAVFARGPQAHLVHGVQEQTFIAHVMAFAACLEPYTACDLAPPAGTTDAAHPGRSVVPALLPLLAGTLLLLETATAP
Chain of Nucleotide-binding oligomerization domain-containing protein 2 (Q9HC29 whole entry, the tested form may be a part): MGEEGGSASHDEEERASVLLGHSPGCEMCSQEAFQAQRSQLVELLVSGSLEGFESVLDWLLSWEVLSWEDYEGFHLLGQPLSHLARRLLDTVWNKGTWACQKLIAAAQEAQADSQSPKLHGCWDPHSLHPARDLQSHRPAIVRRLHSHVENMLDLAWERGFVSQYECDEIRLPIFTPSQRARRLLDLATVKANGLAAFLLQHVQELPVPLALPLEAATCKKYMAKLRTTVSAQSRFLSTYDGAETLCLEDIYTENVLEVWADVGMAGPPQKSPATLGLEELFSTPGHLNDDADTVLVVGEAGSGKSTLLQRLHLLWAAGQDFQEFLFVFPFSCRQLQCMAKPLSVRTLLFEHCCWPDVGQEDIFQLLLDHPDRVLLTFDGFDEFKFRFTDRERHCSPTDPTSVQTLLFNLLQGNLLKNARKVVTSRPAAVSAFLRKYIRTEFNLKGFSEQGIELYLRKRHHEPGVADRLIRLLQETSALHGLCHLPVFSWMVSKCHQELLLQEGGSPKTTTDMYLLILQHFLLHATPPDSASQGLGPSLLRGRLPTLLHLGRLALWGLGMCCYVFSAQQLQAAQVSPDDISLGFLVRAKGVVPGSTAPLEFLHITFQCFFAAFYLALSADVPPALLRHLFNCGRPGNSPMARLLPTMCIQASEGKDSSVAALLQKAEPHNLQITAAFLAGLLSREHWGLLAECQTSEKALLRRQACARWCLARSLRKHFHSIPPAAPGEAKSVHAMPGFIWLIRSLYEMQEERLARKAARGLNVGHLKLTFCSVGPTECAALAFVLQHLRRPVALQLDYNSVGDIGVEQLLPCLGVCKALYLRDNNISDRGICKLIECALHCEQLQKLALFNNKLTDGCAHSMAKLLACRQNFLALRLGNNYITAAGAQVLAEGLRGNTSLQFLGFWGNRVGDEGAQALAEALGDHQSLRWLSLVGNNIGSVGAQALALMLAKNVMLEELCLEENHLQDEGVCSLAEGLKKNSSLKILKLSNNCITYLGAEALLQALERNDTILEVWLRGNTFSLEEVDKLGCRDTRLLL
Chain of Neurotensin receptor type 1 (P30989 whole entry): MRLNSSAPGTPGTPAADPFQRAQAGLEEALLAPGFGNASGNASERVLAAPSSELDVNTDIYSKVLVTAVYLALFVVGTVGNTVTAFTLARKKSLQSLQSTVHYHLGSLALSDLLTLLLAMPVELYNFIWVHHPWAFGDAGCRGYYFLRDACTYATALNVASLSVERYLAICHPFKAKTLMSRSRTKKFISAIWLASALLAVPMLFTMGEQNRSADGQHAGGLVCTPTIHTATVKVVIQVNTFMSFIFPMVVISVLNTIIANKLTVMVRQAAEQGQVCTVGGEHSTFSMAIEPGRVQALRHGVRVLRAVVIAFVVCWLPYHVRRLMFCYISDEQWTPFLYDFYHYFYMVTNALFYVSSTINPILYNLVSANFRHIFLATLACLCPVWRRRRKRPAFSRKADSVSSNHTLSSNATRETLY
Chain of Cytochrome P450 3A4 (P08684 whole entry): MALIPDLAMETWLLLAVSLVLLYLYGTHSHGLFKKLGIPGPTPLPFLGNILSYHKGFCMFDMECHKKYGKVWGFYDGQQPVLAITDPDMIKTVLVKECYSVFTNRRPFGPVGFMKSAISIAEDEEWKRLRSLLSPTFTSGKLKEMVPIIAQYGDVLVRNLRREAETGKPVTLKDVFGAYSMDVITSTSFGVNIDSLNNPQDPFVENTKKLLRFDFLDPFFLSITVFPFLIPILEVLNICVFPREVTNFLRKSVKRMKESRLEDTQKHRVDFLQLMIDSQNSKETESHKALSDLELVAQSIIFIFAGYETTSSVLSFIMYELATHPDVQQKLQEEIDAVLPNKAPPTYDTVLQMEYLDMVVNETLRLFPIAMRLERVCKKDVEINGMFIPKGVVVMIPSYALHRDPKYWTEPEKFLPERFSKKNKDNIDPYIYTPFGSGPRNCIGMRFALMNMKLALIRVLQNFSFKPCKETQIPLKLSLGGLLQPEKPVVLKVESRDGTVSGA
Chain of Ephrin type-A receptor 4 (Q03137 whole entry): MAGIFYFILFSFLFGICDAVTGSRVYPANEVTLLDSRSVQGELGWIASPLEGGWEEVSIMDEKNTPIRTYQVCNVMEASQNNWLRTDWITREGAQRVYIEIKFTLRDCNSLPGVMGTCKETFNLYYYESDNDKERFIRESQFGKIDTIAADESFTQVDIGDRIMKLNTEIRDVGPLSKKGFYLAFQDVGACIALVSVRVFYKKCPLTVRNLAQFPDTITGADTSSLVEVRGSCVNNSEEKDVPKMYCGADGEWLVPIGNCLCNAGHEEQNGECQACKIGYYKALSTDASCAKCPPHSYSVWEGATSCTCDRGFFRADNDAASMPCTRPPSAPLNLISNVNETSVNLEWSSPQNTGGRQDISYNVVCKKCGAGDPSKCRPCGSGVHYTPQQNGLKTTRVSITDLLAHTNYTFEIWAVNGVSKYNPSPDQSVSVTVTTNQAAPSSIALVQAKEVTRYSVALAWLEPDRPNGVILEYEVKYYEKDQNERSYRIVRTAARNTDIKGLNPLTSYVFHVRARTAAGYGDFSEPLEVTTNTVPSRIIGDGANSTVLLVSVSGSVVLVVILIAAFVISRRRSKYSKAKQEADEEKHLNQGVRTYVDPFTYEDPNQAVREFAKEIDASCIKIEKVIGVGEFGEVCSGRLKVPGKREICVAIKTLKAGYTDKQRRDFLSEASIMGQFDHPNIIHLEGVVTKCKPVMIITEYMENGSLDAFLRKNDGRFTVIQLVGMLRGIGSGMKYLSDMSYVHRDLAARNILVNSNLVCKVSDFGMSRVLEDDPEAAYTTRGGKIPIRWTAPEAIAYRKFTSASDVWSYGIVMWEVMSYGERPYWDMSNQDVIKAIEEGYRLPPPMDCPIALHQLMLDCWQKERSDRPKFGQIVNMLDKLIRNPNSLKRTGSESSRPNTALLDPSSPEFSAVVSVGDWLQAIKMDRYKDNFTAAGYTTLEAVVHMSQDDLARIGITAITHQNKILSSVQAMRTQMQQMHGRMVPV
Chain of Genome polyprotein (P29990 2492-3391 limits assumed): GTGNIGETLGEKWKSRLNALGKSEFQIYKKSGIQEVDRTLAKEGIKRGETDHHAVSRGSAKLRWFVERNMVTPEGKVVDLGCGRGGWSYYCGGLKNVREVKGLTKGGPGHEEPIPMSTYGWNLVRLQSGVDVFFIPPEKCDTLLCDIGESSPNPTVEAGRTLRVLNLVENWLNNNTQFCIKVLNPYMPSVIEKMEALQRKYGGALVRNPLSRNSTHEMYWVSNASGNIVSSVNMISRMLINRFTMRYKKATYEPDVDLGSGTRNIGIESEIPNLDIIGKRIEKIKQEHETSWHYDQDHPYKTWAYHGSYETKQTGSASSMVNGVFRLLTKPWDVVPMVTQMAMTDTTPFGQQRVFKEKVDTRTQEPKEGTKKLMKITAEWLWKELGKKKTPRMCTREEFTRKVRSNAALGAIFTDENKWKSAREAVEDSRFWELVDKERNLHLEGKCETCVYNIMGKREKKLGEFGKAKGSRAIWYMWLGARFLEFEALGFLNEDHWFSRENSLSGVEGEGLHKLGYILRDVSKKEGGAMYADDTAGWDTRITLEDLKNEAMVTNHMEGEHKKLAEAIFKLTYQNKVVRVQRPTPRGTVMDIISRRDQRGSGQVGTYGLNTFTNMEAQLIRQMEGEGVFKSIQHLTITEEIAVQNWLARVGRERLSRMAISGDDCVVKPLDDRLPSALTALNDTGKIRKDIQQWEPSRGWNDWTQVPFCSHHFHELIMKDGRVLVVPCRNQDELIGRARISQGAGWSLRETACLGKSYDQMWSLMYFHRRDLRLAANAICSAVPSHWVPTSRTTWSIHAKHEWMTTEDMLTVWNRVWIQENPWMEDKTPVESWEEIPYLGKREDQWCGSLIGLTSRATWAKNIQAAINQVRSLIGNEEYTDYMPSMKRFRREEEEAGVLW

AC50 (Cytochrome P450 3A4): 11.2 µM (inconclusive)
EC50 [1]: 3.89 µM (active)
EC50 [2]: 6.52 µM (inconclusive)
SMILES: CCOC(=O)COc1ccc(/C=C/[N+](=O)[O-])c(OCC(=O)OCC)c1

SMILES: COc1ccccc1N1C(=O)C2CCC(c3ccccc3)CC2C1=O (centres undefined)
IC50 [3]: > 100 µM (inactive)
IC50 (Saccharomyces cerevisiae): > 100 µM (inactive)

IC50 (Ephrin type-A receptor 4): 21.3 µM (active)
IC50 (Estrogen receptor beta): 2.59 µM (not active)
IC50 (Genome polyprotein): 59.1 µM (active)
IC50 [4]: 1.05 µM (active)
IC50 [5]: 3.16 µM (active)
SMILES: O=C(NCCc1ccccc1)c1ccc2nc(-c3ccco3)c(-c3ccco3)nc2c1

IC50 [6]: > 100 µM (inactive)
IC50 [7]: > 100 µM (inactive)
IC50 [8]: > 100 µM (not active)
IC50 [9]: > 100 µM (not active)
SMILES: NC(=O)[C@H](Cc1ccccc1)n1c(=O)[nH]c(=O)n(-c2ccc(Cl)cc2)c1=O

IC50 [10]: > 100 µM (inactive)
IC50 [11]: > 100 µM (inactive)
IC50 [9]: > 100 µM (not active)
SMILES: COc1ccccc1-c1nc(SCc2cccc(Br)c2)n[nH]1

SMILES: Nc1ncnc(Nc2ccccn2)c1[N+](=O)[O-]
IC50 (HEK293 [12]): > 20 µM (inactive)
EC50 [13]: 18.8 µM (active)
IC50 (HEK293 [14]): 7.86 µM (active)
IC50 (HEK293 [15]): 17.6 µM (inactive)
EC50 (HEK293 [16]): 17.8 µM (active)
IC50 (HEK293 [17]): > 20 µM (inactive)

SMILES: Cc1[nH]n(-c2ccccc2)c(=O)c1/C=N/NC(=O)c1cccc(F)c1
IC50 (HEK293 [12]): > 20 µM (inactive)
EC50 [18]: 4.31 µM (active)
AC50 (INS1): 2.03 µM (active)
EC50 [13]: > 20 µM (inactive)
IC50 (HEK293 [14]): > 20 µM (inactive)
EC50 (Streptococcus): 7.25 µM (active)
IC50 (HEK293 [15]): > 20 µM (inactive)
EC50 (HEK293 [16]): 8.44 µM (active)
IC50 (HEK293 [17]): > 20 µM (inactive)
IC50 [19]: 7.78 µM (active)

SMILES: COC(=O)C(=Cc1ccc(OCc2ccc([N+](=O)[O-])cc2)c(OC)c1)C(=O)OC
IC50 (HEK293 [12]): > 20 µM (inactive)
EC50 [1]: 5.98 µM (active)
IC50 (HEK293 [14]): 4.31 µM (active)
IC50 (HEK293 [15]): 8.46 µM (active)
EC50 (HEK293 [16]): > 20 µM (inactive)
CC50 [20]: 6.91 µM (active)

IC50 [10]: 0.308 µM (active)
IC50 [11]: 4 µM (active)
IC50 [9]: > 100 µM (not active)
SMILES: O=C1C2CC=CCC2C(=O)N1c1n[nH]c(-c2ccccc2)n1 (centres undefined)

SMILES: c1ccc2c(CNC34CC5CC(CC(C5)C3)C4)c[nH]c2c1
Ki [21]: 32.9 µM (inactive)

SMILES: O=C1C=CC(=O)N1Nc1c(Cl)cc(Cl)cc1Cl
Ki [21]: 33.7 µM (inactive)
